Experimental data taken from patent US20220187282A1, “CARDIOMYOCYTE PROLIFERATION” (The Council of the Queensland Institute of Medical Research, priority 2019, published 2022).
Read-outs that look alike come from different tables or passages of the source.

Tests used:
Format in all cases: biochemical
[1] = biological target: kinases (Homo sapiens, UniProt Q15139); conditions: PRKD1 (PKC mu) Z-Lyte SP; Test Conc(μM):ATP Conc(μM) 1:10
[2] = biological target: kinases (Homo sapiens, UniProt Q13627); conditions: DYRK1A FRET-Z-Lyte SP; Test Conc(μM):ATP Conc(μM) 1:100
[3] = biological target: kinases (Homo sapiens, UniProt P54760); conditions: EPHB4 FRET-Z-Lyte SP; Test Conc(μM):ATP Conc(μM) 1:100
[4] = biological target: kinases (Homo sapiens, UniProt P53350); conditions: PLK1 FRET-Z-Lyte SP; Test Conc(μM):ATP Conc(μM) 1:10
[5] = biological target: kinases (Homo sapiens, UniProt P17612); conditions: PRKACA (PKA) FRET-Z-Lyte SP; Test Conc(μM):ATP Conc(μM) 1:5
[6] = biological target: kinases (Homo sapiens, UniProt O15111); conditions: CHUK(IKK alpha) FRET-Adapta SP; Test Conc(μM):ATP Conc(μM) 1:10
[7] = biological target: kinases (Homo sapiens, UniProt O14986); conditions: Test Conc(μM):ATP Conc(μM) 1:10
[8] = biological target: kinases (Homo sapiens, UniProt Q8NE63); conditions: HIPK4 FRET-Z-Lyte SP; Test Conc(μM):ATP Conc(μM) 1:50
[9] = biological target: kinases (Homo sapiens, UniProt O43353); conditions: RIPK2 FRET-Lantha SP; Test Conc(μM) 1
Sequence of kinases (Homo sapiens, UniProt O43353) (O43353 whole entry): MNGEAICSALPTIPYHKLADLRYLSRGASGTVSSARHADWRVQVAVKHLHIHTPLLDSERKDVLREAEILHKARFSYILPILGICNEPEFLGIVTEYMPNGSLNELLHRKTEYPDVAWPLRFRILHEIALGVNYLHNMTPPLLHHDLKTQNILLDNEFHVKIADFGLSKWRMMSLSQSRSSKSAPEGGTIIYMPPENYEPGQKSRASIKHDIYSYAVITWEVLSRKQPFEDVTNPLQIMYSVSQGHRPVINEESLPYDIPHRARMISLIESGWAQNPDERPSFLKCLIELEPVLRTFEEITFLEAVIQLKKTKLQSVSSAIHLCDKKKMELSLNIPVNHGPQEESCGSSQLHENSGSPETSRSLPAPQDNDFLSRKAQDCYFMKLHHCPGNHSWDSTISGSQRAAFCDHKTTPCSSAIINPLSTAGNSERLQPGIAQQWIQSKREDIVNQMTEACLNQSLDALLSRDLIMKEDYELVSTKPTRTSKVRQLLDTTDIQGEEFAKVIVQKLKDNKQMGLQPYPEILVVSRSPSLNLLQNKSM

[10] = biological target: kinases (Homo sapiens, UniProt Q9UIK4); conditions: DAPK2 FRET-Lantha SP; Test Conc(μM) 1
Sequence of kinases (Homo sapiens, UniProt Q9UIK4) (Q9UIK4 whole entry): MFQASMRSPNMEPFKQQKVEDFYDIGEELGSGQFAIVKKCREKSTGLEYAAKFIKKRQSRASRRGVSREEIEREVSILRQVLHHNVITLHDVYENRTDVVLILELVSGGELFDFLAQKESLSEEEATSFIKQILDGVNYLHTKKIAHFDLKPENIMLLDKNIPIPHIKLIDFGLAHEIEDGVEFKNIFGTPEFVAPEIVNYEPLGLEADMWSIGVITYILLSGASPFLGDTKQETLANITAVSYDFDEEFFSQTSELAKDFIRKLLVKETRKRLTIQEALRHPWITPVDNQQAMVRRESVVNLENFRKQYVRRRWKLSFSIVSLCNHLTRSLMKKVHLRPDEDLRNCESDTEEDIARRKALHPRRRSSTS

[11] = biological target: kinases (Homo sapiens, UniProt P49761); conditions: CLK3 FRET-Z-Lyte SP; Test Conc(μM):ATP Conc(μM) 1:150
Sequence of kinases (Homo sapiens, UniProt P49761) (P49761 whole entry): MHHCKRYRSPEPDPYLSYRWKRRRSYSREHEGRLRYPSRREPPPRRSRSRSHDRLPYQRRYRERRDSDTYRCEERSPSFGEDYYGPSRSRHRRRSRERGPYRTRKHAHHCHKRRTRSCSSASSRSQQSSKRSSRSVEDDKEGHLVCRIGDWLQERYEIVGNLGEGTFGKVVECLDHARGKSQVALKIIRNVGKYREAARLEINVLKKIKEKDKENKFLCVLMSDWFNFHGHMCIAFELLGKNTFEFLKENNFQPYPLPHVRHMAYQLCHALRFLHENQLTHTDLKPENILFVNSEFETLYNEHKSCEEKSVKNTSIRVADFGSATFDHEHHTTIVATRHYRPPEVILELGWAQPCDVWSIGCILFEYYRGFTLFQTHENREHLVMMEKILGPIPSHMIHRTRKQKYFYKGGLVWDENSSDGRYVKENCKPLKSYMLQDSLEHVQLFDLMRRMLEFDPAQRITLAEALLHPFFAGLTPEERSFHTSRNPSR

[12] = biological target: kinases (Homo sapiens, UniProt O96013); conditions: PAK4 FRET-Z-Lyte SP; Test Conc(μM):ATP Conc(μM) 1:5
[13] = biological target: kinases (Homo sapiens, UniProt Q8TD08); conditions: MAPK15 (ERK7) FRET-Lantha SP; Test Conc(μM) 1
[14] = biological target: kinases (Homo sapiens, UniProt P49674); conditions: CSNK1E (CK1 epsilon) Z-Lyte SP; Test Conc(μM):ATP Conc(μM) 1:5
[15] = biological target: kinases (Homo sapiens, UniProt Q15746); conditions: MYLK (MLCK) FRET-Lantha SP; Test Conc(μM) 1
[16] = biological target: kinases (Homo sapiens, UniProt Q9UEE5); conditions: STK17A (DRAK1) FRET-Lantha SP; Test Conc(μM) 1
[17] = biological target: kinases (Homo sapiens, UniProt P42684); conditions: ABL2 (Arg) FRET-Z-Lyte SP; Test Conc(μM):ATP Conc(μM) 1:25
Sequence of kinases (Homo sapiens, UniProt P42684) (P42684 whole entry): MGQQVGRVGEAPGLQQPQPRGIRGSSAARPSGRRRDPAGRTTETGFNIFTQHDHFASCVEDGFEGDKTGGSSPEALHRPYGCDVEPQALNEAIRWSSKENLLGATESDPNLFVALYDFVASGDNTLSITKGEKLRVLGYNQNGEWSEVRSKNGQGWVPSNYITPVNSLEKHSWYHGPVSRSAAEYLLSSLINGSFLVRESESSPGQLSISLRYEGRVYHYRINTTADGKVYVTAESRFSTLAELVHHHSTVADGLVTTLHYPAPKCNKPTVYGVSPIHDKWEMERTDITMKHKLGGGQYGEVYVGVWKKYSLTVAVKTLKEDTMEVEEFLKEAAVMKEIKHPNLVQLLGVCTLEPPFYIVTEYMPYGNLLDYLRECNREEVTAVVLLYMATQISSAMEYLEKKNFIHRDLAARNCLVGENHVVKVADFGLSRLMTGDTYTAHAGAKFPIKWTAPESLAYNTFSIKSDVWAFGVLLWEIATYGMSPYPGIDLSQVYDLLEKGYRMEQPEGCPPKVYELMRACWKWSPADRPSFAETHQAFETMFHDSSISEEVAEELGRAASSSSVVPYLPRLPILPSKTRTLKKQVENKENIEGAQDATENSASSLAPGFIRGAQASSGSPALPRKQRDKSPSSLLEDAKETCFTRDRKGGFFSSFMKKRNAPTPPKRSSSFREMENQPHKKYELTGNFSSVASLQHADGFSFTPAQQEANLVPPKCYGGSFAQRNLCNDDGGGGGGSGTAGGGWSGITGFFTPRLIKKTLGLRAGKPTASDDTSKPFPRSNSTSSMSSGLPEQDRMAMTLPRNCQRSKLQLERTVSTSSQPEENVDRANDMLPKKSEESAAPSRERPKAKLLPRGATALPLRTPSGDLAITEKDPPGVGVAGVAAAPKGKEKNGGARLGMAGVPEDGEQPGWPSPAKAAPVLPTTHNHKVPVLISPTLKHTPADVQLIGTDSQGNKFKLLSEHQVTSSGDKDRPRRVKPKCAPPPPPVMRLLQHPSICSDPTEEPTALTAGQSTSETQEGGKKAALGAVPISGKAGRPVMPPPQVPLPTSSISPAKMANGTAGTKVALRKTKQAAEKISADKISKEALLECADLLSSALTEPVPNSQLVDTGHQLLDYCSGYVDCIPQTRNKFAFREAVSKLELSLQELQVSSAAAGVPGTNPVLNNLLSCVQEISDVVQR

[18] = biological target: kinases (Homo sapiens, UniProt Q86V86); conditions: PIM3 FRET-Z-Lyte SP; Test Conc(μM):ATP Conc(μM) 1:1000
[19] = biological target: kinases (Homo sapiens, UniProt P42679); conditions: MATK (HYL) FRET-Z-Lyte SP
Sequence of kinases (Homo sapiens, UniProt P42679) (P42679 whole entry): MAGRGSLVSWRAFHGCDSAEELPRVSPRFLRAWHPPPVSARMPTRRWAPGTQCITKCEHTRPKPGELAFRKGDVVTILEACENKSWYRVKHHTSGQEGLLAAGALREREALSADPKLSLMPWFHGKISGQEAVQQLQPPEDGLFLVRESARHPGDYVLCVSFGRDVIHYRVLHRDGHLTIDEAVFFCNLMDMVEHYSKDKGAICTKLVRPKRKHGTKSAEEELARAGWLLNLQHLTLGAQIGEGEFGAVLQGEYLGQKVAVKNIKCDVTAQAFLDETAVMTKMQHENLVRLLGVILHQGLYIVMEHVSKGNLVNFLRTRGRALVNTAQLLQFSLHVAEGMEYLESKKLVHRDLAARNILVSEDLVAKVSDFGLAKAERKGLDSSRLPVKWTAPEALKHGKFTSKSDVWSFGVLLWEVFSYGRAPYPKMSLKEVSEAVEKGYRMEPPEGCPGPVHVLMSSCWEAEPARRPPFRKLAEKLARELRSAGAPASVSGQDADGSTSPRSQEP

[20] = biological target: kinases (Homo sapiens, UniProt P42356); conditions: PI4KA FRET-Adapta SP; Test Conc(μM):ATP Conc(μM) 1:10
[21] = biological target: kinases (Homo sapiens, UniProt P00519); conditions: ABL1 Hu Phos FRET-Z-Lyte SP; Test Conc(μM):ATP Conc(μM) 1:10
[22] = biological target: kinases (Homo sapiens, UniProt O75716); conditions: STK16 (PKL12) FRET-Lantha SP; Test Conc(μM) 1
[23] = biological target: kinases (Homo sapiens, UniProt Q2M2I8); conditions: AAK1 FRET-Lantha SP; Test Conc(μM) 1
[24] = biological target: kinases (Homo sapiens, UniProt Q15375); conditions: EPHA7 FRET-Lantha SP; Test Conc(μM) 1
[25] = biological target: kinases (Homo sapiens, UniProt Q9H3Y6); conditions: SRMS (Srm) FRET-Z-Lyte SP; Test Conc(μM):ATP Conc(μM) 1:150
[26] = biological target: kinases (Homo sapiens, UniProt P15056)
Sequence of kinases (Homo sapiens, UniProt P15056) (P15056 whole entry): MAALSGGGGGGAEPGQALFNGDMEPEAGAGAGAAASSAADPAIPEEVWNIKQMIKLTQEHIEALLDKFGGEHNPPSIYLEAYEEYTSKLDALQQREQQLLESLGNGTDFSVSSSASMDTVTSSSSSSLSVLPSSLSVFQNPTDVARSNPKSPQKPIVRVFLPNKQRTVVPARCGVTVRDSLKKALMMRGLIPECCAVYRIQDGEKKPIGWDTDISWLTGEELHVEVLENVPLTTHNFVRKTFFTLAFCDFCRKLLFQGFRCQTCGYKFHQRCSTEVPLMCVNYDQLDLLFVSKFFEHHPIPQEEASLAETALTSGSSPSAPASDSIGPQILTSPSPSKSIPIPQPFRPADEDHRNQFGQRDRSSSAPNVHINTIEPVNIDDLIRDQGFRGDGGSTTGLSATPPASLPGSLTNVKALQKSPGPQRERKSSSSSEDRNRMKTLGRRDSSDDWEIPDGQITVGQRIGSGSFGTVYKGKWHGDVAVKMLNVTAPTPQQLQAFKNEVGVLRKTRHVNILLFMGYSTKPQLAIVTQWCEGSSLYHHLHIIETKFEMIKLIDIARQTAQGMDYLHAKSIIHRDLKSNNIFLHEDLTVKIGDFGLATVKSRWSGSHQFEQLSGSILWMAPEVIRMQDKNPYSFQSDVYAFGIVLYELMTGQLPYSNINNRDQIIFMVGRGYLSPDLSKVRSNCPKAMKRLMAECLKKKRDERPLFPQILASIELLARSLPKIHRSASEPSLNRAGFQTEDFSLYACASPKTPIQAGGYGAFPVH

[27] = biological target: kinases (Homo sapiens, UniProt Q86UE8); conditions: TLK2 FRET-Lantha SP; Test Conc(μM) 1
Sequence of kinases (Homo sapiens, UniProt Q86UE8) (Q86UE8 whole entry): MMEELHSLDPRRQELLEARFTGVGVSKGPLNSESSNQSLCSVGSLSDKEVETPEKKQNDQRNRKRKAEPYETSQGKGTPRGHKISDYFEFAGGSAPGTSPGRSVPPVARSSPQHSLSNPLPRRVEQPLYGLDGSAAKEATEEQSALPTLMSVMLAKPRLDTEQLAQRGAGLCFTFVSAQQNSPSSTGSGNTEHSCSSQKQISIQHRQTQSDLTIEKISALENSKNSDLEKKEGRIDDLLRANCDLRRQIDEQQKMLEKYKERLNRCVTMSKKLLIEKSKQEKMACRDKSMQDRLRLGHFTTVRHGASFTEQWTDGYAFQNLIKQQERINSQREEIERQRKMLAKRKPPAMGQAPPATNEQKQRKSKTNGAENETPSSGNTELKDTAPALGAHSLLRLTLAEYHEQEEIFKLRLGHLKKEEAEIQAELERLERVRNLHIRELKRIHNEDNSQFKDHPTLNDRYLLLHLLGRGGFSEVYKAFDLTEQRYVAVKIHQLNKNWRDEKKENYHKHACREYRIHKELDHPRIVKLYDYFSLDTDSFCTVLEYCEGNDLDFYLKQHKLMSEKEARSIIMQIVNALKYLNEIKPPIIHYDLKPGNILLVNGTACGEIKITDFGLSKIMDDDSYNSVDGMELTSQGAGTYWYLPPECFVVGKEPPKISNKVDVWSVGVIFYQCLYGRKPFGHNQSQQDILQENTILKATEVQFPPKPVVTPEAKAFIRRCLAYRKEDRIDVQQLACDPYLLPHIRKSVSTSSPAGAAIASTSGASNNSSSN

[28] = biological target: kinases (Homo sapiens, UniProt P07947); conditions: YES1 FRET-Z-Lyte SP; Test Conc(μM):ATP Conc(μM) 1:25
[29] = bRAF Cascade FRET-Z-Lyte SP, Test Conc(μM):ATP Conc(μM) 1:100
[30] = bRAF FRET-Lantha SP, Test Conc(μM) 1

SMILES | Mean Inhib (%) [1] [%] | Mean Inhib (%) [2] [%] | Mean Inhib (%) [3] [%] | Mean Inhib (%) [4] [%] | Mean Inhib (%) [5] [%] | Mean Inhib (%) [6] [%] | Mean Inhib (%) [8] [%] | Mean Inhib (%) [9] [%] | Mean Inhib (%) [10] [%] | Mean Inhib (%) [11] [%] | Mean Inhib (%) [12] [%] | Mean Inhib (%) [13] [%] | Mean Inhib (%) [14] [%] | Mean Inhib (%) [15] [%] | Mean Inhib (%) [16] [%] | Mean Inhib (%) [17] [%] | Mean Inhib (%) [18] [%] | Mean Inhib (%) [20] [%] | Mean Inhib (%) [21] [%] | Mean Inhib (%) [22] [%] | other results
Cc1ccc(NC(=O)c2ccnc(N3CCOCC3)c2)cc1Nc1ccnc(N2CC(C)OC(C)C2)n1 (stereo not shown) [compound 3] | 6.5 | 6.2 | 1.4 | 3.0 | 2.2 | −6.9 | −2.8 | 13.0 | −2.5 | 2.0 | 0.9 | 0.8 | 5.8 | 2.2 | 4.6 | −1.3 | −1.4 | 4.3 | 2.8 | −1.7 | Mean Inhib (%) ([7]; PIP5K1B FRET-Adapta SP): 4.5%; Mean Inhib (%) ([19]; Test Conc(μM):ATP Conc(μM) 1:300): 3.2%; Mean Inhib (%) [23]: 5.8%; Mean Inhib (%) [24]: 6.5%; Mean Inhib (%) [25]: 6.2%; Mean Inhib (%) [26, 29]: 10.3%; Mean Inhib (%) [26, 30]: 66.8%; Mean Inhib (%) [27]: −2.9%; Mean Inhib (%) [28]: 5.8%
Cc1cc(Oc2ccnc(Nc3ccc(S(N)(=O)=O)cc3)c2)c(-c2ccccn2)nc1C [compound 65] | 11.3 | −1.9 | 58.1 | 9.6 | −4.7 | −6.2 | 8.8 | 64.0 | −0.8 | 5.1 | 7.4 | 1.5 | 2.8 | −0.5 | −1.2 | 82.6 | −2.6 | −6.0 | 85.2 | 3.4 | PIP5K1B FRET-Adapta SP Mean Mean Inhib (%) ([7]; PIP5K1B): 2.1%; Mean Inhib (%) ([19]; Test Conc(μM):ATP Conc(μM) 0.25): 1.8%; Mean Inhib (%) [23]: 2.4%; Mean Inhib (%) [24]: 10.4%; Mean Inhib (%) [25]: 1.5%; Mean Inhib (%) [26, 29]: 16.7%; Mean Inhib (%) [26, 30]: 10.4%; Mean Inhib (%) [27]: −4.8%; Mean Inhib (%) [28]: 56.6%
